Experimental data from ChEMBL document CHEMBL5120865, “Exploration of 6-methyl-7-(Hetero)Aryl-7-Deazapurine ribonucleosides as antileishmanial agents” (Eur J Med Chem, 2022).
pEC50: −log10 of the molar value. Where “and” joins values, the source holds several entries; their conditions need not be identical. Equal values may be shown once.

Columns and labels:
[1] = target: T1, UDP-glucuronosyltransferases (UGTs) (Homo sapiens, UniProt O60656+O75310+O75795+P06133+P0DTE4+P0DTE5+P16662+P19224+P22309+P22310+P35503+P35504+P36537+P54855+Q6UWM9+Q9BY64+Q9HAW7+Q9HAW8+Q9HAW9); experiment: Metabolic stability in human liver microsomes S9 fraction assessed as UGT-mediated metabolism by measuring parent compound remaining measured after 15 mins in presence of NADPH; assay type: ADME, subcellular; settings: read-out: Stability
[2] = Cytotoxicity against Swiss mouse peritoneal macrophages assessed as reduction in cell viability measured after 5 days by microscopic analysis; assay type: toxicity, cell-based, Peritoneal macrophage; settings: time 5 day
[3] = AUC (0 to 24) in golden hamster infected with Leishmania infantum MHOM/MA(BE)/67 amastigotes at 50 mg/kg, po SID and measured after 24 hrs by LC-MS/MS analysis; assay type: ADME, organism-based, Mesocricetus auratus; parameters: time 24 hrs, dose 50 mg/kg, route po; settings: in vivo
[4] = test system: Leishmania infantum; experiment: Antileishmanial activity against intracellular Leishmania infantum MHOM/MA(BE)/67 ITMAP263 amastigotes infected in Swiss mouse peritoneal macrophage assessed as inhibition of parasite growth measured after 5 days by geimsa staining based microscopic analysis; assay type: functional, organism-based; settings: MHOM/MA(BE)/67 ITMAP263, Peritoneal macrophage, 120 h
[5] = Metabolic stability in mouse liver microsomes S9 fraction assessed as CYP450-mediated metabolism by measuring parent compound remaining measured after 15 mins in presence of NADPH; assay type: ADME, subcellular; settings: read-out: Stability
[6] = AUC (0 to 24) in golden hamster infected with Leishmania infantum MHOM/MA(BE)/67 amastigotes at 50 mg/kg, po SID and measured after 10 days by LC-MS/MS analysis; assay type: ADME, organism-based, Mesocricetus auratus; parameters: dose 50 mg/kg, time 10 day, route po; settings: in vivo
[7] = Clearance in golden hamster infected with Leishmania infantum MHOM/MA(BE)/67 amastigotes at 50 mg/kg, po SID and measured after 10 days by LC-MS/MS analysis; assay type: ADME, organism-based, Mesocricetus auratus; settings: in vivo, time 10 day
[8] = test system: Leishmania infantum; experiment: Antileishmanial activity against intracellular Leishmania infantum MHOM/MA(BE)/67 amastigotes infected in golden hamster assessed as reduction of amastigote burdens in bone marrow at 50 mg/kg, po SID for 10 days by geimsa staining based microscopic analysis; assay type: functional; parameters: scale not given: the % may be the effect or the level left; settings: time 10 day
[9] = AUC (0 to 8) in golden hamster infected with Leishmania infantum MHOM/MA(BE)/67 amastigotes at 50 mg/kg, po SID and measured after 24 hrs by LC-MS/MS analysis; assay type: ADME, organism-based, Mesocricetus auratus; parameters: dose 50 mg/kg, time 24 hrs, route po; settings: in vivo
[10] = Half life in golden hamster infected with Leishmania infantum MHOM/MA(BE)/67 amastigotes at 50 mg/kg, po SID and measured after 10 days by LC-MS/MS analysis; assay type: ADME, organism-based, Mesocricetus auratus; settings: in vivo, time 10 day
[11] = Cmax in golden hamster infected with Leishmania infantum MHOM/MA(BE)/67 amastigotes at 50 mg/kg, po SID and measured after 10 days by LC-MS/MS analysis; assay type: ADME, organism-based, Mesocricetus auratus; parameters: dose 50 mg/kg, time 10 day, route po; settings: in vivo
[12] = Cytotoxicity against human MRC5 cells assessed as reduction in cell viability incubated for 3 days by resazurin dye based fluorescence analysis; assay type: toxicity; settings: time 3 day
[13] = target: T1, UDP-glucuronosyltransferases (UGTs); experiment: Metabolic stability in human liver microsomes S9 fraction assessed as UGT-mediated metabolism by measuring parent compound remaining measured after 60 mins in presence of NADPH; assay type: ADME, subcellular; settings: read-out: Stability
[14] = target: T2, Cytochrome P450 (Homo sapiens, UniProt P04798+P05177+P05181+P08684+P10632+P10635+P11509+P11712+P13584+P20813+P20815+P20853+P24462+P24903+P33260+P33261+P51589+P78329+P98187+Q02928+Q08477+Q16678+Q16696+Q5TCH4+Q6VVX0+Q7Z449+Q8TAV3+Q96SQ9+Q9HB55); experiment: Metabolic stability in human liver microsomes S9 fraction assessed as CYP450-mediated metabolism by measuring parent compound remaining measured after 30 mins in presence of NADPH; assay type: ADME, subcellular; settings: read-out: Stability
[15] = test system: Leishmania infantum; experiment: Antileishmanial activity against intracellular Leishmania infantum MHOM/MA(BE)/67 amastigotes infected in golden hamster assessed as reduction of amastigote burdens in spleen at 50 mg/kg, po SID for 10 days by geimsa staining based microscopic analysis; assay type: functional; parameters: scale not given: the % may be the effect or the level left; settings: time 10 day
[16] = test system: Leishmania infantum; experiment: Antileishmanial activity against sodium stibogluconate, potassium antimonyl tartrate and MIL resistant intracellular Leishmania infantum MHOM/FR/96/LEM3323-CI4 MIL5C13 promastigotes infected in Swiss mouse peritoneal macrophages assessed as inhibition of parasite growth measured after 96 hrs by microscopic analysis; assay type: functional, organism-based; settings: MHOM/FR/96/LEM3323-CI4 MIL5C13, Peritoneal macrophage
[17] = Toxicity in golden hamster infected with Leishmania infantum MHOM/MA(BE)/67 amastigotes assessed as gross pathological changes at 50 mg/kg, po SID and measured after 10 days; assay type: organism-based, Mesocricetus auratus; settings: in vivo, 240 h, time 10 day
[18] = Metabolic stability in golden hamster liver microsomes S9 fraction assessed as UGT-mediated metabolism by measuring parent compound remaining measured after 30 mins in presence of NADPH; assay type: ADME, subcellular, Mesocricetus auratus; settings: read-out: Stability
[19] = test system: Leishmania infantum; experiment: Antileishmanial activity against intracellular Leishmania infantum MHOM/MA(BE)/67 amastigotes infected in golden hamster assessed as reduction of amastigote burdens in liver at 50 mg/kg, po SID for 10 days by geimsa staining based microscopic analysis; assay type: functional; parameters: scale not given: the % may be the effect or the level left; settings: time 10 day
[20] = Tmax in golden hamster infected with Leishmania infantum MHOM/MA(BE)/67 amastigotes at 50 mg/kg, po SID and measured after 24 hrs by LC-MS/MS analysis; assay type: ADME, organism-based, Mesocricetus auratus; settings: in vivo
[21] = Metabolic stability in mouse liver microsomes S9 fraction assessed as CYP450-mediated metabolism by measuring parent compound remaining measured after 60 mins in presence of NADPH; assay type: ADME, subcellular; settings: read-out: Stability
[22] = target: T2, Cytochrome P450; experiment: Metabolic stability in human liver microsomes S9 fraction assessed as CYP450-mediated metabolism by measuring parent compound remaining measured after 15 mins in presence of NADPH; assay type: ADME, subcellular; settings: read-out: Stability
[23] = target: T1, UDP-glucuronosyltransferases (UGTs); experiment: Metabolic stability in human liver microsomes S9 fraction assessed as UGT-mediated metabolism by measuring parent compound remaining measured after 30 mins in presence of NADPH; assay type: ADME, subcellular; settings: read-out: Stability
[24] = Metabolic stability in golden hamster liver microsomes S9 fraction assessed as UGT-mediated metabolism by measuring parent compound remaining measured after 15 mins in presence of NADPH; assay type: ADME, subcellular, Mesocricetus auratus; settings: read-out: Stability
[25] = Metabolic stability in mouse liver microsomes S9 fraction assessed as UGT-mediated metabolism by measuring parent compound remaining measured after 15 mins in presence of NADPH; assay type: ADME, subcellular; settings: read-out: Stability
[26] = Half life in golden hamster infected with Leishmania infantum MHOM/MA(BE)/67 amastigotes at 50 mg/kg, po SID and measured after 24 hrs by LC-MS/MS analysis; assay type: ADME, organism-based, Mesocricetus auratus; settings: in vivo
[27] = Volume of distribution in golden hamster infected with Leishmania infantum MHOM/MA(BE)/67 amastigotes at 50 mg/kg, po SID and measured after 10 days by LC-MS/MS analysis; assay type: ADME, organism-based, Mesocricetus auratus; settings: in vivo, 240 h, time 10 day
[28] = Metabolic stability in golden hamster liver microsomes S9 fraction assessed as CYP450-mediated metabolism by measuring parent compound remaining measured after 30 mins in presence of NADPH; assay type: ADME, subcellular, Mesocricetus auratus; settings: read-out: Stability
[29] = Metabolic stability in golden hamster liver microsomes S9 fraction assessed as CYP450-mediated metabolism by measuring parent compound remaining measured after 15 mins in presence of NADPH; assay type: ADME, subcellular, Mesocricetus auratus; settings: read-out: Stability
[30] = Metabolic stability in mouse liver microsomes S9 fraction assessed as UGT-mediated metabolism by measuring parent compound remaining measured after 60 mins in presence of NADPH; assay type: ADME, subcellular; settings: read-out: Stability

With `Cc1ncnc2c1c(-c1cc(Cl)ccn1)cn2[C@@H]1O[C@H](CO)[C@@H](O)[C@H]1O` the remaining at 0.25 h [1] was 93%, the CC50 at 120 h [2] was over 64 µM and the AUC at 24 h [3] was 2.08 µg·h/mL. For the same compound, the pEC50 [4] was 6.17, the remaining at 0.25 h [5] was 109% and the AUC at 240 h [6] was 3.38 µg·h/mL. The CL/F [7] was 2.08 L/h/kg, the Activity [8] was 30.8% and the AUC at 24 h [9] was 1.66 µg·h/mL. For the same compound, the half-life [10] was 1.7 h, the Cmax [11] was 1210 ng/mL and 3.2 µM and the CC50 at 72 h [12] was over 64 µM. It also gave a remaining at 1 h [13] of 98%, a remaining at 0.5 h [14] of 86% and an Activity [15] of -1.8%. The pEC50 [16] was 6.14, the Activity [17] was “Non-Toxic” and the remaining at 0.5 h [18] was 92%. For the same compound, the Activity [19] was 52.7%, the Tmax [20] was 0.5 h and the remaining at 1 h [21] was 94%. The remaining at 0.25 h [22] was 92%, the remaining at 0.5 h [23] was 96% and the remaining at 0.25 h [24] was 98%. The remaining at 0.25 h [25] was 103%, the half-life [26] was 2.7 h and the Vd [27] was 5.14 L/kg. For the same compound, the remaining at 0.5 h [28] was 95%, the remaining at 0.25 h [29] was 96% and the remaining at 1 h [30] was 100%.
